# Test results as given in patent US20170275270A1, “BENZYL SUBSTITUTED INDAZOLES” (Bayer Pharma Aktiengesellschaft, priority 2014, published 2017).
# Structures can show the parent of a compound that is named as a salt. Where two headings read alike, the source gives them in different places.
# How the values were obtained:
# [1] = target: Bub1 (Homo sapiens, UniProt O43683); test: Formation-Assay: phosphorylation status of histone 2A by inhibition of kinase activity of Bub1; type: cell-based; conditions: 16 h
# Chain of Bub1 (O43683 whole entry): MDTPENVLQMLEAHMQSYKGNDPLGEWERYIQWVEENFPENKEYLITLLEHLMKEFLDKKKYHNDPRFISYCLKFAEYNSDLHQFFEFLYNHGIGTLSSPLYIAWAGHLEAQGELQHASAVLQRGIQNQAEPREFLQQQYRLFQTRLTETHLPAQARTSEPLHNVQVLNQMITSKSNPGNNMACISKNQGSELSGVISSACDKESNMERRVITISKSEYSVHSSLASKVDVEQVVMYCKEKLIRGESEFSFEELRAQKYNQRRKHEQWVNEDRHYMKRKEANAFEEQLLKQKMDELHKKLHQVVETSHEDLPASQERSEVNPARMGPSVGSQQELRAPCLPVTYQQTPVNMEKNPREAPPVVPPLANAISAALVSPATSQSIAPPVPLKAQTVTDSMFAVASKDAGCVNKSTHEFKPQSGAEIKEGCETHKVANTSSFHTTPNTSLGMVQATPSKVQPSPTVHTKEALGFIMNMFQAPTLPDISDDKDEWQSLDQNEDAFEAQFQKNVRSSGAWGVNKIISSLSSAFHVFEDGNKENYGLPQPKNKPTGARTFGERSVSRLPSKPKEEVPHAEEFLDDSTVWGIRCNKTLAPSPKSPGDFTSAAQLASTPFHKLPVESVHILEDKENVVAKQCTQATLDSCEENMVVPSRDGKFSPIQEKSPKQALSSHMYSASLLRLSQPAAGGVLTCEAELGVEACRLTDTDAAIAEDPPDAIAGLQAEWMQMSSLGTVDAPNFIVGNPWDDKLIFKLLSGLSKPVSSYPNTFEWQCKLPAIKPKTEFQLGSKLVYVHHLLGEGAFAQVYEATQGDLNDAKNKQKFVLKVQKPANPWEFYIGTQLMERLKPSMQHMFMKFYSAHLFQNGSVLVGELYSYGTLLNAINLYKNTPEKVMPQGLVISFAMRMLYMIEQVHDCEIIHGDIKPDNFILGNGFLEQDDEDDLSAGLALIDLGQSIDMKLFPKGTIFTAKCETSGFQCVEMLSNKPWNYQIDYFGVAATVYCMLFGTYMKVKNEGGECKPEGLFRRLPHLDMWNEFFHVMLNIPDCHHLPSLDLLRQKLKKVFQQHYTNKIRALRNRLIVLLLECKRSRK
# Method: Biological Assay 4.1: Formation-Assay
# Cell-Based Mechanistic Assay: Changes of Phosphorylation Status of Histone 2A by Inhibition of Kinase Activity of Bub1
# This assay determines the suppression of histone 2A phosphorylation by a Bub1 kinase inhibitor during co-treatment with Nocodazole. 25000 cells (cells were ordered from ATCC) were seeded in 96 well plate for 5 h at 37° C. Cells were treated with Nocodazole (1 μg/ml) and varying concentrations (between 3 nM and 10 μM) of test compounds for 16 h. Cells were fixed (20 min, Fixing solution R&D), washed three times with PBS and blocked with Odyssey blocking buffer before incubating with the primary antibody against phosphorylated H2A (5 μg/ml ABIN482721) overnight at 2-8° C. After washing, secondary IRDye-labeled antibody mix with cell stains was added for 1 h and washed again with PBS. Plates were scanned with LiCor Odyssey Infrared Imager CLx at 800 nm for P-H2A and at 700 nm for cell stains Draq5/Sapphire. The quotient of 800 nm and 700 nm for Nocodazole only treated cells was set as 100% and the quotient of 800 nm and 700 nm of untreated cells was set as 0%.
# Histone H2A is an immediate intracellular substrate of Bub1 kinase. Determination of the phosphorylation status of Histone H2A provides a direct measure of the intracellular activity of Bub1 kinase.
# [2] = target: T1, catalytic domain of human Bub1 (amino acids 704-1085) (Homo sapiens, UniProt O43683); test: Bub1 kinase assay (TR-FRET); type: biochemical
# T1 construct: catalytic domain of human Bub1 (amino acids 704-1085); His6 (N); made in house; host or cells: Hi5 insect cells
# T1 sequence (O43683 704-1085): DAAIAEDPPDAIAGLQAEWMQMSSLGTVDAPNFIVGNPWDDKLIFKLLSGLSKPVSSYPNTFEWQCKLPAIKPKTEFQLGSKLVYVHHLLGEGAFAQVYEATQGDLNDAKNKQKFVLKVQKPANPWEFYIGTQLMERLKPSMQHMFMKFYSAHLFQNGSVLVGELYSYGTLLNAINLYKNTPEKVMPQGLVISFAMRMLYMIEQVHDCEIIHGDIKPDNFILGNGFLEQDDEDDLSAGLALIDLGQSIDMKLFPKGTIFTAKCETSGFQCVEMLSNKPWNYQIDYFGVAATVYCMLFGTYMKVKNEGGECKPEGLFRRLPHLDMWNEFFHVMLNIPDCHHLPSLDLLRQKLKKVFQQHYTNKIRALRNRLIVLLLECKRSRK
# Procedure, shortened: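 TR-FRET read-out (Eu-anti-mouse IgG/anti-phosphoserine antibody to streptavidin-XL665 on biotinylated peptide) after EDTA stop and 1 h complex formation at 22° C. Kinase reaction ran 60 min at 22° C with 1:3.4 serial dilutions from 2 mM DMSO stocks. IC50 from 4-parameter logistic fit of normalized inhibition.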
# [3] = system: HeLa human cervical tumor cells; test: Proliferation assay (HeLa+Paclitaxel); conditions: read-out: Biological Assay 3: HeLa + Paclitaxel IC50, 3 nM paclitaxel, crystal violet;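 also: compounds at 0.001-10 µM added 4 h after paclitaxel, 92 h exposure, absorbance normalized to zero-point plate (0%) and untreated cells (100%), IC50 from 4-parameter fit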
# [4] = system: HeLa; test: Proliferation assay (HeLa cell line);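 also: crystal violet staining of cell number, scaled between a plate stained before dosing (0%) and cells left untreated (100%), compounds tested at 0.001-10 µM, IC50 via 4-parameter fit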
# [5] = 10 μM ATP, read-out: Biological Assay 1: Bub1 kinase assay median IC50
# [6] = Biological Assay 4.1: H2A Formation IC50, co-treatment with Nocodazole 1 μg/ml
# [7] = Biological Assay 1: Bub1 kinase assay median IC50, 10 μM ATP
# [8] = Homo sapiens, 96 h, read-out: Biological Assay 2: Proliferation assay (HeLa cell line) median IC50
"IC50 [2, 5] [nM]",IC50 [3] [nM],"IC50 [1, 6] [nM]","IC50 [2, 7] [nM]","IC50 [4, 8] [nM]",Compound,"IC50 ([1]; co-treatment with Nocodazole 1 μg/ml, read-out: Biological Assay 4.1: H2A Formation IC50) [nM]","IC50 ([4]; read-out: Biological Assay 2: Proliferation assay (HeLa cell line) median IC50, 4 days, crystal violet) [nM]"
,150,1400,5,3600,"CCOc1cc(F)c(Cn2nc(-c3ncc(CC[S@@+](C)[O-])c(Nc4ccncc4)n3)c3ccccc32)c(F)c1 [Example 2-1-1, 2-[1-(4-ethoxy-2,6-difluorobenzyl)-1H-indazol-3-yl]-5-{2-[(R)-methylsulfinyl]ethyl}-N-(pyridin-4-yl)pyrimidin-4-amine]",,
,170,800,12,2300,"CCOc1cc(F)c(Cn2nc(-c3ncc(CCCCN4CCOCC4)c(Nc4ccncc4)n3)c3ccccc32)c(F)c1 [Example 2-2-12, 2-[1-(4-ethoxy-2,6-difluorobenzyl)-1H-indazol-3-yl]-5-[4-(morpholin-4-yl)butyl]-N-(pyridin-4-yl)pyrimidin-4-amine]",,
,140,3900,130,7800,"CCOc1cc(F)c(Cn2nc(-c3ncc(CCCN4CCOCC4)c(Nc4ccncc4C(F)(F)F)n3)c3ccccc32)c(F)c1 [Example 2-2-14, 2-[1-(4-ethoxy-2,6-difluorobenzyl)-1H-indazol-3-yl]-5-[3-(morpholin-4-yl)propyl]-N-[3-(trifluoromethyl)pyridin-4-yl]pyrimidin-4-amine]",,
,230,1900,15,6900,"CCOc1cc(F)c(Cn2nc(-c3ncc(CCN4CCCC(F)(F)C4)c(Nc4ccncc4)n3)c3ccccc32)c(F)c1 [Example 2-2-16, 5-[2-(3,3-difluoropiperidin-1-yl)ethyl]-2-[1-(4-ethoxy-2,6-difluorobenzyl)-1H-indazol-3-yl]-N-(pyridin-4-yl)pyrimidin-4-amine]",,
,340,1200,95,9300,"CCOc1cc(F)c(Cn2nc(-c3ncc(CCCCN4CCCC(F)(F)C4)c(Nc4ccncc4)n3)c3ccccc32)c(F)c1 [Example 2-2-17, 5-[4-(3,3-difluoropiperidin-1-yl)butyl]-2-[1-(4-ethoxy-2,6-difluorobenzyl)-1H-indazol-3-yl]-N-(pyridin-4-yl)pyrimidin-4-amine]",,
,400,8700,130,> 10000,"CCOc1cc(F)c(Cn2nc(-c3ncc(CCCN4CCC(F)(F)CC4)c(Nc4ccncc4)n3)c3ccccc32)c(F)c1 [Example 2-2-18, 5-[3-(4,4-difluoropiperidin-1-yl)propyl]-2-[1-(4-ethoxy-2,6-difluorobenzyl)-1H-indazol-3-yl]-N-(pyridin-4-yl)pyrimidin-4-amine]",,
,630,1800,28,5400,"CCOc1cc(F)c(Cn2nc(-c3ncc(CN4CC(F)(F)C4)c(Nc4ccncc4)n3)c3ccccc32)c(F)c1 [Example 2-2-19, 5-[(3,3-difluoroazetidin-1-yl)methyl]-2-[1-(4-ethoxy-2,6-difluorobenzyl)-1H-indazol-3-yl]-N-(pyridin-4-yl)pyrimidin-4-amine]",,
,,990,9,2800,"CCOc1cc(F)c(Cn2nc(-c3ncc(CCCS(C)(=O)=O)c(Nc4ccncc4)n3)c3ccccc32)c(F)c1 [Example 2-3-2, 2-[1-(4-ethoxy-2,6-difluorobenzyl)-1H-indazol-3-yl]-5-[3-(methylsulfonyl)propyl]-N-(pyridin-4-yl)pyrimidin-4-amine]",,
,1000,0.52,5.9,2100,"CCOc1cc(F)c(Cn2nc(-c3nc(CS(C)(=O)=O)cc(Nc4ccncc4)n3)c3ccccc32)c(F)c1 [Example 2-3-4, 2-[1-(4-ethoxy-2,6-difluorobenzyl)-1H-indazol-3-yl]-6-[(methylsulfonyl)methyl]-N-(pyridin-4-yl)pyrimidin-4-amine]",,
,3900,70,15,> 10000,"CS(=O)(=O)CCCc1cnc(-c2nn(Cc3c(F)cc(OCCO)cc3F)c3ccccc23)nc1Nc1ccncc1 [Example 2-4-2, 2-{3,5-difluoro-4-[(3-{5-[3-(methylsulfonyl)propyl]-4-(pyridin-4-ylamino)pyrimidin-2-yl}-1H-indazol-1-yl)methyl]phenoxy}ethanol]",,
,> 10000,1000,940,> 10000,"C[S@@+]([O-])CCCc1cnc(-c2nn(Cc3c(F)cc(OCCO)cc3F)c3ccccc23)nc1Nc1ccncc1 [Example 2-4-3, 2-[3,5-difluoro-4-({3-[5-{3-[(R)-methylsulfinyl]propyl}-4-(pyridin-4-ylamino)pyrimidin-2-yl]-1H-indazol-1-yl}methyl)phenoxy]ethanol]",,
28,180,3900,,2600,"COc1cnccc1Nc1nc(-c2nn(Cc3c(F)cc(OCCO)cc3F)c3ccccc23)nc2c1CCC2 [Example 2-4-5, 2-{3,5-difluoro-4-[(3-{4-[(3-methoxypyridin-4-yl)amino]-6,7-dihydro-5H-cyclopenta[d]pyrimidin-2-yl}-1H-indazol-1-yl)methyl]phenoxy}ethanol]",,
,,130,9.9,2100,"CC(=O)Nc1cc(Nc2nc(-c3nn(Cc4c(F)cc(OCCO)cc4F)c4ccccc34)nc3c2CCC3)ccn1 [Example 2-4-6, N-{4-[(2-{1-[2,6-difluoro-4-(2-hydroxyethoxy)benzyl]-1H-indazol-3-yl}-6,7-dihydro-5H-cyclopenta[d]pyrimidin-4-yl)amino]pyridin-2-yl}acetamide]",,
,,6,58,6800,"Cc1nccc(Nc2nc(-c3nn(Cc4c(F)cc(OCCO)cc4F)c4ccccc34)ncc2C2CCN(CC(F)F)CC2)n1 [Example 2-6-17, 2-{4-[(3-{5-[1-(2,2-difluoroethyl)piperidin-4-yl]-4-[(2-methylpyrimidin-4-yl)amino]pyrimidin-2-yl}-1H-indazol-1-yl)methyl]-3,5-difluorophenoxy} ethanol]",,
9.4,,17,,1300,"CCOc1cc(F)c(Cn2nc(-c3ncc(C4CNC4)c(Nc4ccncc4)n3)c3ccccc32)c(F)c1 [Example 2-9-1, 5-(azetidin-3-yl)-2-[1-(4-ethoxy-2,6-difluorobenzyl)-1H-indazol-3-yl]-N-(pyridin-4-yl)pyrimidin-4-amine, salt with hydrochloric acid]",,
,130,2,,2100,"CCOc1cc(F)c(Cn2nc(-c3nc4c(c(Nc5ccnc(C(F)(F)F)c5)n3)CNCC4)c3ccccc32)c(F)c1 [Example 2-9-17, 2-[1-(4-ethoxy-2,6-difluorobenzyl)-1H-indazol-3-yl]-N-[2-(trifluorometh-yl)pyridin-4-yl]-5,6,7,8-tetrahydro-pyrido[4,3-d]pyr-imidin-4-amine]",,
,,8.3,23,1700,"CCOc1cc(F)c(Cn2nc(-c3ncc(C4CCN(CC(F)F)CC4)c(Nc4ccncc4OC)n3)c3ccccc32)c(F)c1 [Example 2-11-5, 5-[1-(2,2-difluoroethyl)piper-idin-4-yl]-2-[1-(4-ethoxy-2,6-difluorobenzyl)-1H-indazol-3-yl]-N-(3-methoxypyridin-4-yl)pyrimidin-4-amine]",,
,670,38,,> 10000,"CCOc1cc(F)c(Cn2nc(-c3nc(C)c(F)c(Nc4ccnc(C(F)(F)F)c4)n3)c3ccccc32)c(F)c1 [Example 2-12-21, 2-[1-(4-ethoxy-2,6-difluorobenzyl)-1H-indazol-3-yl]-5-fluoro-6-methyl-N-[2-(trifluoromethyl)pyridin-4-yl]pyrimidin-4-amine]",,

Compound,"IC50 [2, 5] [nM]",IC50 [3] [nM],"IC50 [1, 6] [nM]","IC50 [2, 7] [nM]","IC50 [4, 8] [nM]","IC50 ([1]; co-treatment with Nocodazole 1 μg/ml, read-out: Biological Assay 4.1: H2A Formation IC50) [nM]","IC50 ([4]; read-out: Biological Assay 2: Proliferation assay (HeLa cell line) median IC50, 4 days, crystal violet) [nM]"
"2-{3,5-difluoro-4-[(3-{5-[2-(methylsulfonyl)ethyl]-4-(eparate-4-ylamino)pyrimidin-2-yl}-1H-indazol-1-yl)methyl]phenoxy}ethanol [Example 2-4-1]",12,3600,,,,96,> 10000
"CCOc1cc(F)c(Cn2nc(-c3ncc(OCC(=O)N4CC(F)(F)C4)c(Nc4ccncc4)n3)c3ccccc32)c(F)c1 [Example 3-5-1, 1-(3,3-difluoroazetidin-1-yl)-2-({2-[1-(4-ethoxy-2,6-difluorobenzyl)-1H-indazol-3-yl]-4-(pyridin-4-ylamino)pyrimidin-5-yl}oxy)ethanone, reference compound]",,,360,8,3900,,
